The test has as its target T1, human PAH with the R408W mutation (Homo sapiens, UniProt P00439, R408W).
T1 construct: expressed in transfected cells
T1 sequence (P00439 1-452 R408W): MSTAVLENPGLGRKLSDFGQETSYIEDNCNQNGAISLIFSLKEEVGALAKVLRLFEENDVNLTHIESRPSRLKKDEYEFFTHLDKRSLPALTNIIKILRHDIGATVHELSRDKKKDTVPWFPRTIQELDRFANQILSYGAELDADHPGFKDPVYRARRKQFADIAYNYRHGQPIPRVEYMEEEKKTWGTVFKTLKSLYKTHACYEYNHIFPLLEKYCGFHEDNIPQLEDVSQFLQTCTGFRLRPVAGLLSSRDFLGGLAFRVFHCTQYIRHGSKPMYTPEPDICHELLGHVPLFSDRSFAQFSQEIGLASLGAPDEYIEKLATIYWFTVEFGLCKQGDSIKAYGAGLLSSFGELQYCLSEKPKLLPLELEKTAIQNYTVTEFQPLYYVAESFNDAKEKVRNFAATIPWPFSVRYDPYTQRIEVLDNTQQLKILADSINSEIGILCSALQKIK
The experiment in a line: Cell Based Phenylalanine Flux Assay.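 Note: after compound treatment, cells received sepiapterin plus isotope-labelled Phenylalanine for 4 hours, then labelled Tyrosine in the medium was quantified, 10-point 2-fold dilution series run in duplicate.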 As to conditions: A375 cells expressing human R408W PAH; 24 hrs compound incubation; 13C-Tyrosine by LC-MS; average where tested multiple times; read-out: AC50.

The structures appear in SMILES notation.

We go through 28 compounds from US20230365592A1 (Agios Pharmaceuticals, Inc., priority 2022, published 2023).

The AC50 is the concentration at which the activity in the assay is half-maximal.

Take `O=C(c1cncs1)N1CCc2[nH]cnc2[C@@H]1c1cc2ccccn2n1` [Example 603, (R)-(4-(pyrazolo[1,5-a]pyridin-2-yl)-6,7-dihydro-1H-imidazo[4,5-c]pyridin-5(4H)-yl)(thiazol-5-yl)methanone]: the AC50 is 1000 to 5000 nM.

As to `O=C(c1nnc(-c2ccccn2)o1)N1CCc2[nH]cnc2[C@@H]1c1cc2ccccn2n1` [Example 604, (R)-(4-(pyrazolo[1,5-a]pyridin-2-yl)-6,7-dihydro-1H-imidazo[4,5-c]pyridin-5(4H)-yl)(5-(pyridin-2-yl)-1,3,4-oxadiazol-2-yl)methanone], the AC50 was over 5000 nM.

For `O=C(c1nnc(-c2ccccn2)o1)N1CCc2[nH]cnc2[C@H]1c1cc2ccccn2n1` [Example 605, (S)-(4-(pyrazolo[1,5-a]pyridin-2-yl)-6,7-dihydro-1H-imidazo[4,5-c]pyridin-5(4H)-yl)(5-(pyridin-2-yl)-1,3,4-oxadiazol-2-yl)methanone], the AC50 was 500 to 1000 nM. The same measure for `Cc1ncoc1C(=O)N1CCc2[nH]cnc2[C@H]1c1cc2ccccn2n1` [Example 606, (S)-(4-methyloxazol-5-yl)(4-(pyrazolo[1,5-a]pyridin-2-yl)-6,7-dihydro-1H-imidazo[4,5-c]pyridin-5(4H)-yl)methanone]: under 500 nM; for `Cc1ncoc1C(=O)N1CCc2[nH]cnc2[C@@H]1c1cc2ccccn2n1` [Example 607, (R)-(4-methyloxazol-5-yl)(4-(pyrazolo[1,5-a]pyridin-2-yl)-6,7-dihydro-1H-imidazo[4,5-c]pyridin-5(4H)-yl)methanone]: over 5000 nM. As to `O=C(Cc1nc(C(F)(F)F)cs1)N1CCc2[nH]cnc2[C@H]1c1cc2ccccn2n1` [Example 608, (S)-1-(4-(pyrazolo[1,5-a]pyridin-2-yl)-6,7-dihydro-1H-imidazo[4,5-c]pyridin-5(4H)-yl)-2-(4-(trifluoromethyl)thiazol-2-yl)ethanone], the AC50 was in the range of 1000 to 5000 nM. In the case of `O=C(Cc1nc(C(F)(F)F)cs1)N1CCc2[nH]cnc2[C@@H]1c1cc2ccccn2n1` [Example 609, (R)-1-(4-(pyrazolo[1,5-a]pyridin-2-yl)-6,7-dihydro-1H-imidazo[4,5-c]pyridin-5(4H)-yl)-2-(4-(trifluoromethyl)thiazol-2-yl)ethanone], the AC50 was over 5000 nM. On to `O=C(c1ocnc1C(F)(F)F)N1CCc2[nH]cnc2[C@H]1c1cc2ccccn2n1` [Example 610, (S)-(4-(pyrazolo[1,5-a]pyridin-2-yl)-6,7-dihydro-1H-imidazo[4,5-c]pyridin-5(4H)-yl)(4-(trifluoromethyl)oxazol-5-yl)methanone], for which the AC50 was under 500 nM.

Turning to `O=C(c1ocnc1C(F)(F)F)N1CCc2[nH]cnc2[C@@H]1c1cc2ccccn2n1` [Example 611, (R)-(4-(pyrazolo[1,5-a]pyridin-2-yl)-6,7-dihydro-1H-imidazo[4,5-c]pyridin-5(4H)-yl)(4-(trifluoromethyl)oxazol-5-yl)methanone], the concentration at half-maximal activity (AC50) lay within 1000 to 5000 nM. For `CC(F)(F)c1ncc(C(=O)N2CCc3[nH]cnc3[C@H]2c2cc3ccccn3n2)s1` [Example 612, (S)-(2-(1,1-difluoroethyl)thiazol-5-yl)(4-(pyrazolo[1,5-a]pyridin-2-yl)-6,7-dihydro-1H-imidazo[4,5-c]pyridin-5(4H)-yl)methanone], the AC50 was under 500 nM. As for `O=C(CC1CC1)N1CCc2[nH]cnc2[C@H]1c1cc2ccccn2n1` [Example 614, (S)-2-cyclopropyl-1-(4-(pyrazolo[1,5-a]pyridin-2-yl)-6,7-dihydro-1H-imidazo[4,5-c]pyridin-5(4H)-yl)ethanone], the AC50 is under 500 nM. The same measure for `O=C(CC1CC1)N1CCc2[nH]cnc2[C@@H]1c1cc2ccccn2n1` [Example 615, (R)-2-cyclopropyl-1-(4-(pyrazolo[1,5-a]pyridin-2-yl)-6,7-dihydro-1H-imidazo[4,5-c]pyridin-5(4H)-yl)ethanone]: 1000 to 5000 nM; for `O=C(c1nnc(-c2ncccc2F)o1)N1CCc2[nH]cnc2[C@H]1c1cc2ccccn2n1` [Example 616, (S)-(5-(3-fluoropyridin-2-yl)-1,3,4-oxadiazol-2-yl)(4-(pyrazolo[1,5-a]pyridin-2-yl)-6,7-dihydro-1H-imidazo[4,5-c)pyridin-5(4H)-yl)methanone]: 500 to 1000 nM; for `O=C(c1nnc(-c2ncccc2F)o1)N1CCc2[nH]cnc2[C@@H]1c1cc2ccccn2n1` [Example 617, (R)-(5-(3-fluoropyridin-2-yl)-1,3,4-oxadiazol-2-yl)(4-(pyrazolo[1,5-a]pyridin-2-yl)-6,7-dihydro-1H-imidazo[4,5-c]pyridin-5(4H)-yl)methanone]: over 5000 nM. As for `O=C(c1ocnc1C1CC1)N1CCc2[nH]cnc2[C@H]1c1cc2ccccn2n1` [Example 618, (S)-(4-cyclopropyloxazol-5-yl)(4-(pyrazolo[1,5-a]pyridin-2-yl)-6,7-dihydro-1H-imidazo[4,5-c]pyridin-5(4H)-yl)methanone], the AC50 is under 500 nM. For the compound `O=C(c1ocnc1C1CC1)N1CCc2[nH]cnc2[C@@H]1c1cc2ccccn2n1` [Example 619, (R)-(4-cyclopropyloxazol-5-yl)(4-(pyrazolo[1,5-a]pyridin-2-yl)-6,7-dihydro-1H-imidazo[4,5-c]pyridin-5(4H)-yl)methanone], the AC50 was in the range of 1000 to 5000 nM. The result for `O=C(c1nnc(C2CC2)o1)N1CCc2[nH]cnc2[C@H]1c1cc2ccccn2n1` [Example 620, (S)-(5-cyclopropyl-1,3,4-oxadiazol-2-yl)(4-(pyrazolo[1,5-a]pyridin-2-yl)-6,7-dihydro-1H-imidazo[4,5-c]pyridin-5(4H)-yl)methanone] reads 1000 to 5000 nM; that for `O=C(c1nnc(C2CC2)o1)N1CCc2[nH]cnc2[C@@H]1c1cc2ccccn2n1` [Example 621, (R)-(5-cyclopropyl-1,3,4-oxadiazol-2-yl)(4-(pyrazolo[1,5-a]pyridin-2-yl)-6,7-dihydro-1H-imidazo[4,5-c]pyridin-5(4H)-yl)methanone], over 5000 nM; that for `O=C(c1oc(-c2ccccn2)nc1C1CC1)N1CCc2[nH]cnc2[C@@H]1c1cc2ccccn2n1` [Example 623, (R)-(4-cyclopropyl-2-(pyridin-2-yl)oxazol-5-yl)(4-(pyrazolo[1,5-a]pyridin-2-yl)-6,7-dihydro-1H-imidazo[4,5-c]pyridin-5(4H)-yl)methanone], 1000 to 5000 nM.

With `CC(C)(O)c1nc(C2CC2)c(C(=O)N2CCc3[nH]cnc3[C@H]2c2cc3ccccn3n2)o1` [Example 624, (S)-(4-cyclopropyl-2-(2-hydroxypropan-2-yl)oxazol-5-yl)(4-(pyrazolo[1,5-a]pyridin-2-yl)-6,7-dihydro-1H-imidazo[4,5-c]pyridin-5(4H)-yl)methanone], the AC50 lay in the range of 1000 to 5000 nM. The result for `CC(C)(O)c1nc(C2CC2)c(C(=O)N2CCc3[nH]cnc3[C@@H]2c2cc3ccccn3n2)o1` [Example 625, (R)-(4-cyclopropyl-2-(2-hydroxypropan-2-yl)oxazol-5-yl)(4-(pyrazolo[1,5-a]pyridin-2-yl)-6,7-dihydro-1H-imidazo[4,5-c]pyridin-5(4H)-yl)methanone] reads 1000 to 5000 nM. Turning to `Cn1cc(-c2nnc(C(=O)N3CCc4[nH]cnc4[C@H]3c3cc4ccccn4n3)o2)cn1` [Example 626, (S)-(5-(1-methyl-1H-pyrazol-4-yl)-1,3,4-oxadiazol-2-yl)(4-(pyrazolo[1,5-a]pyridin-2-yl)-6,7-dihydro-1H-imidazo[4,5-c]pyridin-5(4H)-yl)methanone], the AC50 lay within 1000 to 5000 nM. Consider `CC(C)(O)c1nc(C(F)(F)F)c(C(=O)N2CCc3[nH]cnc3[C@H]2c2cc3ccccn3n2)o1` [Example 628, (S)-(2-(2-hydroxypropan-2-yl)-4-(trifluoromethyl)oxazol-5-yl)(4-(pyrazolo[1,5-a]pyridin-2-yl)-6,7-dihydro-1H-imidazo[4,5-c)pyridin-5(4H)-yl)methanone], for which the AC50 was under 500 nM. For the compound `CC(C)(O)c1nc(C(F)(F)F)c(C(=O)N2CCc3[nH]cnc3[C@@H]2c2cc3ccccn3n2)o1` [Example 629, (R)-(2-(2-hydroxypropan-2-yl)-4-(trifluoromethyl)oxazol-5-yl)(4-(pyrazolo[1,5-a]pyridin-2-yl)-6,7-dihydro-1H-imidazo[4,5-c]pyridin-5(4H)-yl)methanone], the AC50 is 1000 to 5000 nM. In the case of `O=C(c1ocnc1C(F)F)N1CCc2[nH]cnc2[C@H]1c1cc2ccccn2n1` [Example 630, (S)-(4-(difluoromethyl)oxazol-5-yl)(4-(pyrazolo[1,5-a]pyridin-2-yl)-6,7-dihydro-1H-imidazo[4,5-c]pyridin-5(4H)-yl)methanone], the AC50 was under 500 nM. As to `O=C(c1ocnc1C(F)F)N1CCc2[nH]cnc2[C@@H]1c1cc2ccccn2n1` [Example 631, (R)-(4-(difluoromethyl)oxazol-5-yl)(4-(pyrazolo[1,5-a]pyridin-2-yl)-6,7-dihydro-1H-imidazo[4,5-c]pyridin-5(4H)-yl)methanone], the AC50 fell in the range of 1000 to 5000 nM. As to `O=C(c1oc(C2CC2)nc1C(F)F)N1CCc2[nH]cnc2[C@H]1c1cc2ccccn2n1` [Example 632, (S)-(2-cyclopropyl-4-(difluoromethyl)oxazol-5-yl)(4-(pyrazolo[1,5-a]pyridin-2-yl)-6,7-dihydro-1H-imidazo[4,5-c]pyridin-5(4H)-yl)methanone], the AC50 is under 500 nM. As to `O=C(c1oc(C2CC2)nc1C(F)F)N1CCc2[nH]cnc2[C@@H]1c1cc2ccccn2n1` [Example 633, (R)-(2-cyclopropyl-4-(difluoromethyl)oxazol-5-yl)(4-(pyrazolo[1,5-a]pyridin-2-yl)-6,7-dihydro-1H-imidazo[4,5-c]pyridin-5(4H)-yl)methanone], the concentration at half-maximal activity (AC50) was over 5000 nM.
